# Paper PMC11340408 (RSC Advances, 2024)
# Assays:
# Type in all cases: cell-based, human
# MCF-7 cell line = experiment: MTT assay, breast cancer MCF-7 cell line; conditions: for IC50: Homo sapiens, MCF7, 48 h, read-out: IC50 against MCF-7; for Activity against MCF-7 compared to MTX (in words): MTT assay; for times greater efficacy than MTX against MCF-7: ratio to MTX IC50
# A-375 cell line = experiment: MTT assay, melanoma A-375 cell line; conditions: for IC50: Homo sapiens, A-375, 48 h, read-out: IC50 against A375; for Viability of A375 (in words): 15.62–500 μM, Fig. 6A
# HEK-293 cell line = experiment: MTT assay, toxicity on normal cell line HEK-293; conditions: for IC50: Homo sapiens, HEK293, 48 h, read-out: IC50 against HEK-293; for Viability of HEK-293 (in words): 15.62–500 μM
SMILES,IC50 (MCF-7 cell line) [µM],IC50 (A-375 cell line) [µM],Activity against MCF-7 compared to MTX (in words) (MCF-7 cell line),IC50 (HEK-293 cell line) [µM],times greater efficacy than MTX against MCF-7 (MCF-7 cell line) [times],Viability of A375 (in words) (A-375 cell line),Viability of HEK-293 (in words) (HEK-293 cell line; Fig. 6C),Toxicity to HEK-293 compared to MTX (in words) (HEK-293 cell line; MTT assay),"Viability of MCF-7 (in words) (MCF-7 cell line; 15.62–500 μM, Fig. 6B)","Toxicity to HEK-293 cells (in words) (HEK-293 cell line; MTT assay, normal cell line)","Toxicity against HEK-293 at 500 μM (in words) (HEK-293 cell line; 500 μM, Fig. 6C)"
"Cc1ccc(/C=C/C(=O)c2ccc(Oc3nc4c(c(=O)n(C)c(=O)n4C)n3C)cc2)cc1 [Compound 4a, (E)-1,3,7-Trimethyl-8-(4-(3-p-tolylacryloyl)phenoxy)-1H-purine-2,6(3H,7H)-dione]",38 ± 3.7,279 ± 2.3,activities surpassing that of MTX,407 ± 3.1,–,–,–,–,–,–,–
"Cn1c(=O)c2c(nc(Oc3ccc(C(=O)/C=C/c4ccc(Cl)cc4Cl)cc3)n2C)n(C)c1=O [Compound 4b, (E)-8-(4-(3-(2,4-Dichlorophenyl)acryloyl)phenoxy)-1,3,7-trimethyl-1H-purine-2,6(3H,7H)-dione]",230 ± 3.2,325 ± 3.1,–,347 ± 4.2,–,–,–,–,–,–,–
"COc1ccccc1/C=C/C(=O)c1ccc(Oc2nc3c(c(=O)n(C)c(=O)n3C)n2C)cc1 [Compound 4c, (E)-8-(4-(3-(2-Methoxyphenyl)acryloyl)phenoxy)-1,3,7-trimethyl-1H-purine-2,6(3H,7H)-dione]",269 ± 4.5,325 ± 3.8,–,451 ± 2.4,–,–,–,–,–,–,–
"Cn1c(=O)c2c(nc(Oc3ccc(C(=O)/C=C/c4ccccc4)cc3)n2C)n(C)c1=O [Compound 4d, (E)-8-(4-Cinnamoylphenoxy)-1,3,7-trimethyl-1H-purine-2,6(3H,7H) dione]",18 ± 1.9,157 ± 4.2,activities surpassing that of MTX,220 ± 3.4,~19,–,–,–,–,–,–
"Cn1c(=O)c2c(nc(Oc3ccc(C(=O)/C=C/c4ccc(Cl)cc4)cc3)n2C)n(C)c1=O [Compound 4e, (E)-8-(4-(3-(4-Chlorophenyl)acryloyl)phenoxy)-1,3,7-trimethyl-1H-purine-2,6(3H,7H)-dione]",35 ± 2.2,273 ± 3.4,activities surpassing that of MTX,386 ± 3.2,~10,–,–,–,–,–,–
"Cn1c(=O)c2c(nc(Oc3ccc(C(=O)/C=C/c4cccc([N+](=O)[O-])c4)cc3)n2C)n(C)c1=O [Compound 4f, (E)-1,3,7-Trimethyl-8-(4-(3-(3-nitrophenyl)acryloyl)phenoxy)-1H-purine-2,6(3H,7H)-dione]",> 500,> 500,–,> 500,–,–,–,–,–,–,–
"COc1ccc(/C=C/C(=O)c2ccc(Oc3nc4c(c(=O)n(C)c(=O)n4C)n3C)cc2)c(OC)c1 [Compound 4g, (E)-8-(4-(3-(2,4-Dimethoxyphenyl)acryloyl)phenoxy)-1,3,7-trimethyl-1H-purine-2,6(3H,7H)-dione]",> 500,425 ± 3.5,–,> 500,–,–,–,–,–,–,–
"COc1ccc(/C=C/C(=O)c2ccc(Oc3nc4c(c(=O)n(C)c(=O)n4C)n3C)cc2)cc1 [Compound 4h, (E)-8-(4-(3-(4-Methoxyphenyl)acryloyl)phenoxy)-1,3,7-trimethyl-1H-purine-2,6(3H,7H)-dione]",> 500,> 500,–,> 500,–,–,–,–,–,–,–
"Cn1c(=O)c2c(nc(Oc3ccc(C(=O)/C=C/c4ccccc4Cl)cc3)n2C)n(C)c1=O [Compound 4i, (E)-8-(4-(3-(2-Chlorophenyl)acryloyl)phenoxy)-1,3,7-trimethyl-1H-purine-2,6(3H,7H)-dione]",108 ± 3.1,111 ± 1.9,–,162 ± 4.2,–,lowest viability values,more toxic,more toxic,–,–,–
"Cn1c(=O)c2c(nc(Oc3ccc(C(=O)/C=C/c4c(Cl)cccc4Cl)cc3)n2C)n(C)c1=O [Compound 4j, (E)-8-(4-(3-(2,6-Dichlorophenyl)acryloyl)phenoxy)-1,3,7-trimethyl-1H-purine-2,6(3H,7H)-dione]",181 ± 3.1,200 ± 4.3,–,214 ± 4.3,–,–,–,–,–,–,–
"COC(=O)c1ccc(/C=C/C(=O)c2ccc(Oc3nc4c(c(=O)n(C)c(=O)n4C)n3C)cc2)cc1 [Compound 4k, (E)-Methyl 4-(3-oxo-3-(4-(1,3,7-trimethyl-2,6-dioxo-2,3,6,7-tetrahydro-1H-purin-8-yloxy)phenyl)prop-1-enyl)benzoate]",34 ± 3.5,92 ± 3.2,activities surpassing that of MTX,99 ± 3,~10,lowest viability values,highest toxicity and lowest viability,more toxic,lowest viability rate,most toxic,–
"CN(Cc1cnc2nc(N)nc(N)c2n1)c1ccc(C(=O)N[C@@H](CCC(=O)O)C(=O)O)cc1 [MTX, methotrexate, reference compound]",343 ± 3.6,418 ± 2,–,199 ± 2.4,–,–,–,–,–,–,highest toxicity

# The next lines start with results.
IC50 (MCF-7 cell line) [µM],IC50 (A-375 cell line) [µM],SMILES,Activity against MCF-7 compared to MTX (in words) (MCF-7 cell line),IC50 (HEK-293 cell line) [µM],times greater efficacy than MTX against MCF-7 (MCF-7 cell line) [times],Viability of A375 (in words) (A-375 cell line),Viability of HEK-293 (in words) (HEK-293 cell line; Fig. 6C),Toxicity to HEK-293 compared to MTX (in words) (HEK-293 cell line; MTT assay),"Viability of MCF-7 (in words) (MCF-7 cell line; 15.62–500 μM, Fig. 6B)","Toxicity to HEK-293 cells (in words) (HEK-293 cell line; MTT assay, normal cell line)","Toxicity against HEK-293 at 500 μM (in words) (HEK-293 cell line; 500 μM, Fig. 6C)"
249 ± 3.2,249 ± 3.6,"COc1ccc(C(=O)/C=C/c2ccc(Oc3nc4c(c(=O)n(C)c(=O)n4C)n3C)cc2)cc1 [Compound 5a, (E)-8-(4-(3-(4-Methoxyphenyl)-3-oxoprop-1-enyl)phenoxy)-1,3,7-trimethyl-1H-purine-2,6(3H,7H)-dione]",–,> 500,–,–,–,–,–,–,–
223 ± 3.7,275 ± 3.7,"Cn1c(=O)c2c(nc(Oc3ccc(/C=C/C(=O)c4ccc([N+](=O)[O-])cc4)cc3)n2C)n(C)c1=O [Compound 5b, (E)-1,3,7-Trimethyl-8-(4-(3-(4-nitrophenyl)-3-oxoprop-1-enyl)phenoxy)-1H-purine-2,6(3H,7H)-dione]",–,419 ± 4.6,–,–,–,–,–,–,–
> 500,> 500,"Cn1c(=O)c2c(nc(Oc3ccc(/C=C/C(=O)c4cccc([N+](=O)[O-])c4)cc3)n2C)n(C)c1=O [Compound 5c, (E)-1,3,7-Trimethyl-8-(4-(3-(3-nitrophenyl)-3-oxoprop-1-enyl)phenoxy)-1H-purine-2,6(3H,7H)-dione]",–,> 500,–,–,–,–,–,–,–
> 500,> 500,"Cc1ccc(C(=O)/C=C/c2ccc(Oc3nc4c(c(=O)n(C)c(=O)n4C)n3C)cc2)cc1 [Compound 5d, (E)-1,3,7-Trimethyl-8-(4-(3-oxo-3-p-tolylprop-1-enyl)phenoxy)-1H-purine-2,6(3H,7H)-dione]",–,> 500,–,–,–,–,–,–,–
333 ± 2.5,> 500,"Cn1c(=O)c2c(nc(Oc3ccc(/C=C/C(=O)c4ccc5ccccc5c4)cc3)n2C)n(C)c1=O [Compound 5e, (E)-1,3,7-Trimethyl-8-(4-(3-(naphthalen-2-yl)-3-oxoprop-1-enyl)phenoxy)-1H-purine-2,6(3H,7H)-dione]",–,> 500,–,–,–,–,–,–,–
130 ± 3.4,368 ± 3.1,"Cn1c(=O)c2c(nc(Oc3ccc(/C=C/C(=O)c4ccc(Cl)cc4)cc3)n2C)n(C)c1=O [Compound 5f, (E)-8-(4-(3-(4-Chlorophenyl)-3-oxoprop-1-enyl)phenoxy)-1,3,7-trimethyl-1H-purine-2,6(3H,7H)-dione]",–,240 ± 3.7,–,–,more toxic,–,–,–,–
